Source: the SangsterLogP compilation

Test: method code SF-AS, from DOI: 10.1002/jps.2600820804

SMILES	logP
N#Cc1ccccc1C(N)=O	0
NC(=O)c1ccccc1[N+](=O)[O-]	-0.12
CCOc1cccc(OC(C)=O)c1	2.08
O=C(O)c1c(Cl)cccc1[N+](=O)[O-]	1.56
Oc1c(F)cccc1F	1.96
O=C(O)c1c(F)cccc1Cl	2.11
CCc1cccc(CC)c1O	3.03
Oc1c(Br)cccc1Br	3.36
Cc1cccc(Cl)c1O	2.8
CCc1cccc(CC)c1OC(C)=O	3.4
Cc1cccc(C)c1C(=O)O	2.21
Cc1cccc(Cl)c1C(=O)O	2.31
O=C(O)c1c(F)cccc1F	1.59
CC(=O)Oc1c(C)cccc1C	2.32
O=C(O)c1c(Br)cccc1Br	3.58
CSc1ccccc1C(N)=O	0.71

Results, then the molecule that gave them:

logP	SMILES
1.66	COC(=O)c1ccccc1[N+](=O)[O-]
2.42	COC(=O)c1c(F)cccc1Cl
1.89	COC(=O)c1cccc([N+](=O)[O-])c1
2.04	COC(=O)c1ccccc1OC
2.85	COC(=O)c1cccc(Cl)c1
2.74	COC(=O)c1ccccc1I
2.21	COC(=O)c1c(Cl)cccc1[N+](=O)[O-]
2.7	COC(=O)c1ccc(C)cc1
2.55	COC(=O)c1c(C)cccc1C
1.82	COC(=O)c1ccccc1F
2.28	COC(=O)c1ccc(F)cc1
2.95	COC(=O)c1ccc(Br)cc1
2.94	CC(=O)Oc1c(Cl)cccc1Cl
2.79	COC(=O)c1c(Cl)cccc1Cl
1.96	COC(=O)c1c(F)cccc1F
2.77	COC(=O)c1cccc(C)c1
1.94	COC(=O)c1ccc([N+](=O)[O-])cc1
2.45	CCc1cccc(OC(C)=O)c1
1.61	COc1cccc(OC(C)=O)c1
